The values below come from US6528272B2 (priority 1997, dated 2003).

This test deals with SEB (Staphylococcus aureus, UniProt P01552). In kind it is binding.
Sequence of SEB (P01552 28-266 limits assumed): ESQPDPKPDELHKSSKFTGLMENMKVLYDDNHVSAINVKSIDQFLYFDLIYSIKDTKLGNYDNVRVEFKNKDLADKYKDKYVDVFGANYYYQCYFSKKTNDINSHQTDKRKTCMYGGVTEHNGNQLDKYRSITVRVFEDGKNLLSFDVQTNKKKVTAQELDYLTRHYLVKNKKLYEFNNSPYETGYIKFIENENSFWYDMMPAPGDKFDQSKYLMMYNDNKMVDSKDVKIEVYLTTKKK
With galactosylceramide [GalCer], the “binding of SEB to glycosphingolipid” value was “did not significantly bind”.
Under glucosylceramide [GlcCer] stands “did not significantly bind”; under lactosylceramide [LacCer], “did not significantly bind”.
For the substance digalactosylceramide [diGalCer], the “binding of SEB to glycosphingolipid” value is “strong binding”.
